Measured values from patent US9212387B2, “Method for detection of genes targeted by microRNA” (National University Corporation Okayama University, priority 2010, dated 2015).
{Biotin} = biotin label; {P} = phosphate

How the values were obtained:
[1] = tested on: target gene mRNAs of miR-183 in HEK293 cell extract; assay: Pull down of target gene mRNAs of miR-183 with biotinylated miRNA from cell extract, RT-PCR assay; format: binding, human; details: for candidate genes whose mRNA was pulled down / RT-PCR bands: 14 kinds of target candidate genes of miR-183, HEK293 cell extract, streptavidin agarose beads; for target candidate genes of miR-183 (10 kinds) in pull-down complex: VIL2, PPP2CA, RREB1, BCL2L11, PDCD4, LATS2, RSU1, ING3, DNMT3A, BRMS1L, wash 400 mM KCl
[2] = tested on: target candidate genes of let-7b (mRNA in cell extract); assay: Pull down of target gene mRNAs of let-7b with biotinylated miRNA, RT-PCR assay; format: binding, human; details: wash 400 mM KCl; for E2F6 and SOCS4 in pulled down mRNA: Example 8; for E2F2, TUSC2 and SRSF8 in pulled down mRNA: Example 9
Description: In this example, in the detection method for target genes of miRNA of Example 1, target genes were detected through the use of let-7b as biotinylated miRNA. In accordance with the biotinylated miRNA of 1) of Example 1, biotinylated let-7b in which the sense strand had its 5′ end and 3′ end modified by phosphorylation and biotin, respectively, and the guide strand had only its 5′ end modified by phosphorylation and biotinylated miR-183 as a negative control were synthesized (FASMAC Co., Ltd.). A pull-down complex was obtained by the same technique as in Example 1 through the use of streptavidin beads (Streptavidin Mutein Matrix: Roche), and washed five times with a wash solution containing 400 mM KCl in the same manner as in Example 5. After that, RNA purification and cDNA synthesis were performed from the complex binding to the beads. The resulting cDNA was subjected to an RT-PCR assay with primers specific for the E2F6 and SOCS4-2 genes as target candidate genes of let-7b.
In this example, in the detection method for target genes of miRNA of Example 1, target genes were detected through the use of let-7b as biotinylated miRNA. In this example, the detection was performed by the same technique as in Example 8 except that biotinylated miR-29a was used as a negative control in place of biotinylated miR-183. Also in the case of the biotinylated miR-29a, one in which the sense strand had its 5′ end and 3′ end modified by phosphorylation and biotin, respectively, and the antisense strand had only its 5′ end modified by phosphorylation was produced (FASMAC Co., Ltd.). An RT-PCR assay was performed with primers specific for the PRDM2, E2F2, TUSC2, and SRSF8 genes as target candidate genes let-7b.

AGO2 protein = target: T1, AGO2 protein (Homo sapiens, UniProt Q9UKV8); assay: AGO2 protein in pull-down complex, Western blot; format: binding; details: HEK293 cell extract; streptavidin agarose beads 1 hour
T1 construct: endogenous in cells; host or cells: HEK293 cell extract
T1 sequence (Q9UKV8 whole entry): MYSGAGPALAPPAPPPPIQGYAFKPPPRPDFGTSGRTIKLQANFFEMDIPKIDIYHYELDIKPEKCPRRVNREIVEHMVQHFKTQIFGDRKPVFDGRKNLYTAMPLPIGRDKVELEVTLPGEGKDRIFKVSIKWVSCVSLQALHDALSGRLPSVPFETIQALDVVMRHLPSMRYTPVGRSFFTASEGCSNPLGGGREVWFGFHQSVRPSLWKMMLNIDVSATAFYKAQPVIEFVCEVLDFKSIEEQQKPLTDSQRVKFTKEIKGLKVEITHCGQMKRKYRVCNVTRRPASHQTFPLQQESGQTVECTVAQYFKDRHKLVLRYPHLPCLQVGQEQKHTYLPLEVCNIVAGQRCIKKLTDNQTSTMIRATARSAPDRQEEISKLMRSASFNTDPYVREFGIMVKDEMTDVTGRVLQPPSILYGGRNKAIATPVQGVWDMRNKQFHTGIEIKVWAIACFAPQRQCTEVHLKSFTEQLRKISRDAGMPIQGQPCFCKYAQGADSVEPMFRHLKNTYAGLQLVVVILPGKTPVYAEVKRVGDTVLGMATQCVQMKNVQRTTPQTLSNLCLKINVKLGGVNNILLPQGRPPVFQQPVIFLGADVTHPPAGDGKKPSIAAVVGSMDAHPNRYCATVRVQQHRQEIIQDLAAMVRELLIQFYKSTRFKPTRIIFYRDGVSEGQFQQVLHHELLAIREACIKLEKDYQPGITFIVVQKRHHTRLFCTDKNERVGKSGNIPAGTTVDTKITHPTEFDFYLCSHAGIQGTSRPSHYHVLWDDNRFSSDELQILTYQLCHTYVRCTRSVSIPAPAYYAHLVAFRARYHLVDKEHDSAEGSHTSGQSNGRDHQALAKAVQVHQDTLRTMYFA
Method: Biotinylated miR-183 was produced by the same technique as that for the biotinylated miRNA of 1-1) of Example 1, and a cell extract of HEK293 cells was produced by the same technique as that for the cell extract of 1-2) of Example 1. Five tubes in each of which biotinylated double-stranded miR-183 ([…]) was added to 500 μl of the cell extract were produced, and were each subjected to a reaction at 4° C. for 30 minutes, and then at 30° C. for 60 minutes to provide a solution containing a biotinylated miRNA-target gene mRNA complex. To the solution containing the complex were added streptavidin agarose beads (Streptavidin Mutein Matrix, No. 03 708 152 001: Roche), and each tube was treated at 4° C. for 0 minutes, 2 minutes, 12 minutes, 24 minutes, or 1 hour. […]
The presence or absence of the AGO2 protein in the pull-down complex of Example 2 was confirmed. […] By the same technique as in Experimental Example 1-2, the sample was electrophoresed with 8% SDS-polyacrylamide gel, proteins were then blotted onto a PVDF membrane and subjected to a reaction through the use of an anti-AGO2 antibody (Anti Human AGO2 monoclonal antibody; Wako Pure Chemical Industries, Ltd., No. 016-20861), an anti-mouse antibody, and a Vecstatin ABC-AP kit (Vector Laboratories), and a fluorescence image was acquired with an image analyzer (LAS-1000; FUJIFILM). […]

[3] = tested on: target candidate genes of miR-19a (mRNA in cell extract); assay: Pull down of target gene mRNAs of miR-19a with biotinylated miRNA, RT-PCR assay; format: binding, human
Description: In this example, in the detection method for target genes of miRNA of Example 1, target genes were detected through the use of miR-19a as biotinylated miRNA. In accordance with the biotinylated miRNA of 1-1) of Example 1, biotinylated miR-19a in which the sense strand had its 5′ end and 3′ end modified by phosphorylation and biotin, respectively, and the antisense strand had only its 5′ end modified by phosphorylation was were synthesized (FASMAC Co., Ltd.). The synthesized biotinylated miR-19a (400 pmole) and biotin (B4501: Sigma, […]) as a negative control were subjected to the treatments of 1-2) and 1-3) of Example 1. A pull-down complex was obtained from the resulting complex by the same technique as in 1-4) through the use of streptavidin beads (Streptavidin Mutein Matrix: Roche), and washed five times with a wash solution containing 400 mM KCl in the same manner as in Example 5. After that, the precipitate was treated with a 5 mM biotin solution (containing 5 mM biotin and an RNase inhibitor in the wash solution containing 400 mM KCl) at 42° C. for 5 minutes, and centrifuged in the same manner, and the pull-down complex (biotinylated miR-19a) was liberated from the streptavidin beads. […]
In this example, target genes were detected through the use of miR-19a as biotinylated miRNA in the detection method for target genes of miRNA of Example 1. […]

Substance | candidate genes whose mRNA was pulled down / RT-PCR bands [1] | E2F6 and SOCS4 in pulled down mRNA [2] | E2F2, TUSC2 and SRSF8 in pulled down mRNA [2] | target candidate genes of miR-183 (10 kinds) in pull-down complex [1] | further results
biotinylated let-7b: Sense SEQ ID NO: 3, 5′-phosphorylated, 3′-biotinylated; antisense SEQ ID NO: 4 | no band for any of the genes was detected | contained | contained |  | 
natural type miRNA: Original mature miRNA type: sense SEQ ID NO: 1, antisense SEQ ID NO: 9 (sense UAUGGCACUGGUAGAAUUCACU; antisense GUGAAUUACCGAAGGGCCAUAA; sense: RNA, 5' {P}, 3' {Biotin}, backbone not given here; antisense: RNA, 5' {P}, backbone not given here) |  |  |  | contained | 
biotinylated miR-183: Sense SEQ ID NO: 1, 5′-phosphorylated, 3′-biotinylated; antisense SEQ ID NO: 2 with a 1-base mismatch (sense UAUGGCACUGGUAGAAUUCACU; antisense UGAAUUCUACCAGUGCCACAAG; sense: RNA, 5' {P}, 3' {Biotin}, backbone not given here; antisense: RNA, 5' {P}, backbone not given here) | 7 | not contained |  | contained | AGO2 protein (about 95 kDa) in pull-down complex (AGO2 protein): detected
biotinylated miR-19a: Sense SEQ ID NO: 7, 5′-phosphorylated, 3′-biotinylated; antisense SEQ ID NO: 8 (sense UGUGCAAAUCUAUGCAAAACUGA; antisense AGUUUUGCAUAGAUUUGCAUAAG; sense: RNA, 5' {P}, 3' {Biotin}, backbone not given here; antisense: RNA, 5' {P}, backbone not given here) |  |  |  |  | target candidate genes (9 genes) of miR-19a in pulled down mRNA ([3]; JAZF1, TNF, SMAD4, HIP1, HIC1, LRP12, TNFRSF12A, TUSC2, SIVA1, Example 11): contained; target candidate genes (7 kinds) of miR-19a in 5 mM biotin extract or on remaining beads ([3]; SOX4, INHBB, TP531NP1, PTP4A1, TNFAIP3, HIC1, CNKSR2, Example 10): present
biotinylated miR-29a: Sense SEQ ID NO: 5, 5′-phosphorylated, 3′-biotinylated; antisense SEQ ID NO: 6; negative control (sense UAGCACCAUCUGAAAUCGGUUA; antisense ACCGAUUUCAGAUGGUGCCAAG; sense: RNA, 5' {P}, 3' {Biotin}, backbone not given here; antisense: RNA, 5' {P}, backbone not given here) |  |  | not contained |  | 
